# Reference: PubChem BioAssay (NCI)
#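 Dose response: 5 concentrations. Exposure: 48 h. Format: 96-well plates. Endpoint: linear interpolation; highest concentration if not reached. GI50: concentration for 50% inhibition of growth. TGI marks complete inhibition of growth.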
# Columns and labels:
# Assay in all cases: DTP human tumour cell line panel, 48 h
# COLO 205 colon = tested on: COLO 205 colon
# OVCAR-4 ovarian = tested on: OVCAR-4 ovarian
# U251 CNS = tested on: U251 CNS
# MOLT-4 leukemia = tested on: MOLT-4 leukemia
# SW-620 colon = tested on: SW-620 colon
# MALME-3M melanoma = tested on: MALME-3M melanoma
# LOX IMVI melanoma = tested on: LOX IMVI melanoma
# CCRF-CEM leukemia = tested on: CCRF-CEM leukemia
# SF-295 CNS = tested on: SF-295 CNS
# MDA-MB-231 breast = tested on: MDA-MB-231 breast
SMILES,GI50 (COLO 205 colon) [µM],TGI (COLO 205 colon) [µM],GI50 (OVCAR-4 ovarian) [µM],TGI (OVCAR-4 ovarian) [µM],GI50 (U251 CNS) [µM],TGI (U251 CNS) [µM],GI50 (MOLT-4 leukemia) [µM],TGI (MOLT-4 leukemia) [µM],GI50 (SW-620 colon) [µM],TGI (SW-620 colon) [µM],GI50 (MALME-3M melanoma) [µM],TGI (MALME-3M melanoma) [µM],GI50 (LOX IMVI melanoma) [µM],TGI (LOX IMVI melanoma) [µM],GI50 (CCRF-CEM leukemia) [µM],TGI (CCRF-CEM leukemia) [µM],GI50 (SF-295 CNS) [µM],TGI (SF-295 CNS) [µM],GI50 (MDA-MB-231 breast) [µM],TGI (MDA-MB-231 breast) [µM]
CCOc1cc2c(Cl)ncnc2c(OCC)c1OCC,12.2,25.5,13,27.7,7,19.6,2.87,10.4,2.88,9.24,9.5,27.5,3.39,10,2.6,6.85,9.25,29.2,11.9,24.9
CCN(CC)c1ccc(/C=C/c2ccc3cc(C)ccc3[n+]2CC)cc1,0.124,0.516,0.0468,12.1,0.0441,14.5,0.161,2.65,0.229,15.6,0.149,1.33,0.0666,1.2,0.299,29.9,0.0658,0.864,0.215,2.16
FC(F)(F)c1cccc(Nc2nccc(-c3cnn4nc(-c5ccccc5)ccc34)n2)c1,11.8,> 25,5.18,10.3,4.58,10.1,> 16.5,> 25,8.65,> 21.4,7.23,14.1,6.18,> 17.7,> 17.9,> 25,> 16.6,> 25,5.58,> 20.9
COC(=O)[C@]12CC[C@@H](C)[C@H](C)[C@@H]1C1=CC[C@@H]3[C@@]4(C)C/C(=N\O)[C@H](O)[C@@]5(C)COC(=C45)C[C@@]3(C)[C@]1(C)CC2,7.75,21.8,4.46,18.6,3.02,9.79,2.97,10.8,8.42,21.9,15.9,34.2,4.6,17,2.79,8.83,4.82,17.1,3.84,16
Nc1nc(Cl)c2ncn(Cc3ccc(C45CC6CC(CC(C6)C4)C5)c(O)c3)c2n1,5.43,27.8,0.991,3.82,3.09,12.9,1.25,16.2,2.95,13.3,2.22,16.3,2.38,13,0.809,10.6,3.29,17.4,1.85,11.4
